From ChEMBL document CHEMBL1201862, “PubChem BioAssay data set” (2004)
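A five-concentration, 48-hour dose response in 96-well plates underlies each endpoint, interpolated linearly between surrounding concentrations. The concentration for 50% growth inhibition is given as GI50.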 Activity calls are given as the source filed them. Cut-off read from the data, not from the text of the source: active = GI50 up to about 1.1 µM and inactive = higher.

Assays:
Experiment in all cases: NCI tumour cell line growth inhibition, 48 h
786-0 = test system: 786-0
A498 = test system: A498
A549 = test system: A549
ACHN = test system: ACHN
K562 = test system: K562
MDA-MB-231 = test system: MDA-MB-231
NCI-H23 = test system: NCI-H23
NCI-H460 = test system: NCI-H460
NCI-H522 = test system: NCI-H522
OVCAR-3 = test system: OVCAR-3
PC-3 = test system: PC-3
SK-MEL-28 = test system: SK-MEL-28
SK-MEL-5 = test system: SK-MEL-5
SN12C = test system: SN12C
SNB-75 = test system: SNB-75
TK-10 = test system: TK-10
UACC-257 = test system: UACC-257
MDA-N = test system: MDA-N
Hs-578T = test system: Hs-578T

Compound | GI50 (786-0) | GI50 (A498) | GI50 (A549) | GI50 (ACHN) | GI50 (K562) | GI50 (MDA-MB-231) | GI50 (NCI-H23) | GI50 (NCI-H460) | GI50 (NCI-H522) | GI50 (OVCAR-3) | GI50 (PC-3) | GI50 (SK-MEL-28) | GI50 (SK-MEL-5) | GI50 (SN12C) | GI50 (SNB-75) | GI50 (TK-10) | GI50 (UACC-257) | GI50 (MDA-N) | GI50 (Hs-578T)
CC(C)(C)c1cc(-c2cc(C(C)(C)C)n(-c3ccccc3)n2)nn1-c1ccccc1 | > 100 µM (inactive) | > 100 µM (inactive) | > 100 µM (inactive) | 23.2 µM (inactive) | 3.27 µM (inactive) | > 100 µM (inactive) | > 100 µM (inactive) | 61.5 µM (inactive) | > 100 µM (inactive) | > 100 µM (inactive) | 65.6 µM (inactive) | > 100 µM (inactive) | > 100 µM (inactive) | > 100 µM (inactive) | > 100 µM (inactive) | > 100 µM (inactive) | > 100 µM (inactive) |  | 
O=C1c2c(O)cc(O)cc2C(C2OC(CO)C(O)C(O)C2O)c2cc(CO)cc(O)c21 (stereo not drawn) | > 100 µM (inactive) | > 100 µM (inactive) | > 100 µM (inactive) | > 100 µM (inactive) | > 100 µM (inactive) | > 100 µM (inactive) | > 100 µM (inactive) | > 100 µM (inactive) |  | > 100 µM (inactive) | > 100 µM (inactive) | > 100 µM (inactive) | > 100 µM (inactive) | > 100 µM (inactive) | 22.5 µM (inactive) | > 100 µM (inactive) | > 100 µM (inactive) | > 100 µM (inactive) | 
C=C1C(=O)OC2CC(C)C3(O)CCC(=O)C3(C)CC12 (stereo not drawn) | 21.3 µM (inactive) | 25.8 µM (inactive) | 52.4 µM (inactive) | 17.5 µM (inactive) |  | 26 µM (inactive) | 31.7 µM (inactive) |  | 14.3 µM (inactive) | 16 µM (inactive) | 49 µM (inactive) | 54.8 µM (inactive) | 36.6 µM (inactive) | 19.1 µM (inactive) | 20.2 µM (inactive) | 26.7 µM (inactive) | 43.7 µM (inactive) |  | 25.9 µM (inactive)
C[C@H]1CN[C@@H]2[C@@H](C)[C@H]3[C@@H](C[C@H]4[C@@H]5CC[C@H]6C[C@@H](N)CC[C@]6(C)[C@H]5CC[C@]34C)O[C@@]2(O)C1 | 1.69 µM (inactive) | 0.142 µM (active) | 3.8 µM (inactive) | 2.65 µM (inactive) | 1.91 µM (inactive) | 1.9 µM (inactive) | 12.9 µM (inactive) | 2.32 µM (inactive) | 2.24 µM (inactive) | 2.03 µM (inactive) | 2.79 µM (inactive) | 1.77 µM (inactive) | 3.04 µM (inactive) | 1.42 µM (inactive) | 2.44 µM (inactive) | 2.53 µM (inactive) | 1.85 µM (inactive) |  | 1.91 µM (inactive)
